Laboratory results taken from PMC10121968, “Fosgonimeton, a Novel Positive Modulator of the HGF/MET System, Promotes Neurotrophic and Procognitive Effects in Models of Dementia” (Neurotherapeutics, 2022).
Non-standard residues stand in square brackets, D forms with d. Residues, ends and D or L forms follow the SMILES beside them. *: point of attachment. Hexanoyl = CCCCCC(=O)*; Ahx = NCCCCCC(=O)O

What was measured:
[1] = Fosgo-AM solubility (turbidity in PBS); format: physicochemical; conditions: 1% DMSO, 37 °C, 2 h
Procedure: A fosgo-AM dilution series was produced in DMSO. Compound stocks were added in triplicate to a 96-well plate containing PBS, resulting in 1% DMSO concentration, and were incubated at 37 °C for 2 h. Turbidity in the sample wells was determined by absorbance at 620 nm.

[2] = test system: rat scopolamine amnesia model; test: Scopolamine Morris water maze study; format: in vivo; conditions: 1 mg/kg SC
Procedure: Animals were maintained in accordance with the National Institute of Health Guide for the Care and Use of Laboratory Animals. Rats (14-week-old male Sprague Dawley) from Simonsen laboratories (Gilroy, CA) were used in the scopolamine Morris water maze study. This study was performed at Washington State University and procedures were approved by the Washington State University Institutional Animal Care and Use Committee.
Animals were anesthetized with ketamine hydrochloride plus xylazine (70 mg/kg and 7 mg/kg intraperitoneally, respectively). An intracerebroventricular (ICV) guide cannula (PE-60; Clay Adams, Parsippany, NY) was stereotaxically positioned (model 900; David Kopf Instruments, Tujunga, CA) in the right hemisphere of the brain 1.0 mm posterior and 1.5 mm lateral to the bregma. The guide cannula measured 1.5 cm in length with a heat bulge at 2.5 mm from the beveled tip to control insertion depth. Once in position, the cannula was secured to the skull with screws and dental cement. Animals were housed individually and hand-gentled for 6 days of postsurgical recovery. Histologic verification of cannula placement was accomplished by ICV injection of 4 μL cresyl violet after completion of behavioral testing. Animals for which cannulas were improperly placed were removed from the study.
The Morris water maze consisted of a 183-cm diameter, 64-cm deep tank with a clear circular platform (16-cm diameter) placed 30 cm from the maze wall and submerged 1 cm below the surface of the 26.7 °C water. The maze was virtually divided into 4 equal quadrants with the platform centered in 1 quadrant. Eight visual cues were randomly placed on the maze wall and these cues remained consistent throughout the trials.
Animals received either fosgo-AM (1 mg/kg in DMSO) or volume-matched vehicle (DMSO) by subcutaneous (SC) injection 45 min before testing, followed by ICV injection of scopolamine hydrobromide (105 nmol in 4 μL artificial cerebrospinal fluid [aCSF] over a duration of 40 s) 20 min before testing. […]
Probe trials were conducted on day 9 to determine learning persistence. […] The percentage of trial time spent within the platform region, the number of times that the animal crossed into the platform region, and the average distance from the center of the platform region were recorded. The swimming patterns of the rats were recorded using video tracking software (MediaRecorder and EthoVision software, Noldus, VA, USA).
The daily escape latency (defined as the mean latency to find the platform each day) was calculated for each animal. […] Data collected during the probe trials were assessed for normality (Shapiro–Wilk) and homoscedasticity (Brown-Forsythe) and subsequently analyzed using one-way ANOVA with Bonferroni post hoc tests compared with scopolamine + vehicle controls. […]

[3] = Simulated intestinal and gastric fluid stability; format: in vitro ADME; conditions: 1 h, 5 µM, 37 °C
Procedure: Simulated intestinal and gastric fluid studies were contracted to Quintara Discovery Inc, Hayward, California. Simulated intestinal fluid was freshly prepared with 8.7 mM NaOH, 28.65 mM NaH2PO4, 5.85 mM NaCl, with a final pH of 6.8. […] was added to a final concentration of 0.32%. Simulated gastric fluid was prepared with 34.2 mM NaCl. The pH was adjusted to 1.2, and […] was added to a final concentration of 1%. Fosgo-AM was added to the simulated fluids to achieve a concentration of 5 µM. After mixing, samples were transferred to 96-well plates in duplicate (25 μL/well) and incubated at 37 °C. At time 0, 1, 2, and 4 h, 150 μL quench solution (100% acetonitrile with 0.1% formic acid) and bucetin internal standard was added to the appropriate wells. Plates were sealed and centrifuged at 4 °C for 15 min at 4000 rpm. The supernatant was transferred to fresh plates for liquid chromatography/[…] mass spectrometry (LC/MS/MS) analysis. The extent of metabolism was calculated as the disappearance of the test compound compared with the time = 0 incubations.

[4] = Oral bioavailability; conditions: in vivo
[5] = probe trial day 9, vs scopolamine + vehicle

With CCCCCC(=O)N[C@@H](Cc1ccc(O)cc1)C(=O)N[C@H](C(=O)NCCCCCC(N)=O)[C@@H](C)CC [fosgo-AM] (Hexanoyl-Tyr-Ile-[Ahx]-NH2) the maximum aqueous solubility [1] was “less than 50 μg/mL”, the escape latency ([2]; 8-day acquisition, scopolamine ICV) was “reduced escape latency over time” and the “frequency of entering the platform zone” value [2, 5] was “significantly improved”. For the same compound, the “mean distance from the center of the platform” value [2, 5] was “significantly improved”, the “percentage of time spent in the platform zone” value [2, 5] was “significantly improved” and the remaining after exposure ([3]; simulated gastric fluid) was 7.8%. For the same compound, the remaining after exposure ([3]; simulated intestinal fluid) was 0.1% and the oral bioavailability [4] was “poor oral bioavailability”.
